Test results from ChEMBL document CHEMBL3779812, “Synthesis and evaluation of the cytotoxic activity of novel ethyl 4-[4-(4-substitutedpiperidin-1-yl)]benzyl-phenylpyrrolo[1,2-a]quinoxaline-carboxylate derivatives in myeloid and lymphoid leukemia cell lines” (Eur J Med Chem, 2016).

Test system: K562
Experiment: Antiproliferative activity against human K562 cells measured after 3 days by MTS assay
Type: functional, cell-based
Conditions: K562, 72 h

First: CCOC(=O)c1c(-c2ccccc2)cn2c1c(-c1ccc(CN3CCC(n4c(=O)[nH]c5ccccc54)CC3)cc1)nc1ccccc12
Second: CCOC(=O)c1cn2c(c(-c3ccc(CN4CCC(n5c(=O)[nH]c6ccccc65)CC4)cc3)nc3ccccc32)c1-c1ccccc1
The IC50 of the first is 2.2-fold lower: 4 µM for the first, 9 µM for the second.

Going from `CCOC(=O)c1c(-c2ccccc2)cn2c1c(-c1ccc(CN3CCC(c4nc5ccc(F)cc5[nH]4)CC3)cc1)nc1ccccc12` to `CCOC(=O)c1cn2c(c(-c3ccc(CN4CCC(c5nnc(-c6ccccn6)[nH]5)CC4)cc3)nc3ccccc32)c1-c1ccccc1`, the IC50 rises from 3 µM to 7 µM (2.3-fold). The first is the more potent here.

`O=c1[nH]c2ccccc2n1C1CCN(Cc2ccc(-c3nc4ccccc4n4cccc34)cc2)CC1` and `O=c1[nH]c2ccccc2n1C1CCN(Cc2ccc(-c3nc4ccccc4n4cc5ccccc5c34)cc2)CC1` are within 1.5-fold of each other in IC50: 4.5 µM for the first, 5 µM for the second.

Compared with `CCOC(=O)c1cc(-c2ccccc2)n2c1c(-c1ccc(CN3CCC(n4c(=O)[nH]c5ccccc54)CC3)cc1)nc1ccccc12`, `O=c1cc(N2CCOCC2)oc2c(-c3ccccc3)cccc12` [LY-294002] is 4.8-fold higher in IC50: 8 µM for the first, 38 µM for the second.

Test system: not listed separately
Experiment: Antiproliferative activity against human U937 cells measured after 3 days by MTS assay
Type: functional, cell-based
Conditions: U-937, 72 h

`CCOC(=O)c1c(-c2ccccc2)cn2c1c(-c1ccc(CN3CCC(n4c(=O)[nH]c5ccccc54)CC3)cc1)nc1ccccc12` and `CCOC(=O)c1cn2c(c(-c3ccc(CN4CCC(n5c(=O)[nH]c6ccccc65)CC4)cc3)nc3ccccc32)c1-c1ccccc1` cannot be ordered by IC50: > 50 µM for the first, > 50 µM for the second.

First: CCOC(=O)c1c(-c2ccccc2)cn2c1c(-c1ccc(CN3CCC(c4nc5ccc(F)cc5[nH]4)CC3)cc1)nc1ccccc12
Second: CCOC(=O)c1cn2c(c(-c3ccc(CN4CCC(c5nnc(-c6ccccn6)[nH]5)CC4)cc3)nc3ccccc32)c1-c1ccccc1
The IC50 of the first is 3-fold higher: 21 µM for the first, 7 µM for the second. The second is the more potent here.

First: CCOC(=O)c1cc(-c2ccccc2)n2c1c(-c1ccc(CN3CCC(n4c(=O)[nH]c5ccccc54)CC3)cc1)nc1ccccc12
Second: O=c1cc(N2CCOCC2)oc2c(-c3ccccc3)cccc12 [LY-294002]
The IC50 of the first is 1.6-fold lower: 9 µM for the first, 14 µM for the second. The first is the more potent here.

Test system: not listed separately
Experiment: Antiproliferative activity against human HL60 cells measured after 3 days by MTS assay
Type: functional, cell-based
Conditions: HL-60, 72 h

First: O=c1[nH]c2ccccc2n1C1CCN(Cc2ccc(-c3nc4ccccc4n4ccc(-c5ccccc5)c34)cc2)CC1
Second: O=c1[nH]c2ccccc2n1C1CCN(Cc2ccc(-c3nc4ccccc4n4cc5ccccc5c34)cc2)CC1
The IC50 of the first is 2.5-fold lower: 2 µM for the first, 5 µM for the second. The first is the more potent here.

Compared with `CCOC(=O)c1c(-c2ccccc2)cn2c1c(-c1ccc(CN3CCC(n4c(=O)[nH]c5ccccc54)CC3)cc1)nc1ccccc12`, `CCOC(=O)c1cn2c(c(-c3ccc(CN4CCC(n5c(=O)[nH]c6ccccc65)CC4)cc3)nc3ccccc32)c1-c1ccccc1` is lower in IC50: > 50 µM for the first, 3.5 µM for the second.

Going from `CCOC(=O)c1c(-c2ccccc2)cn2c1c(-c1ccc(CN3CCC(c4nc5ccc(F)cc5[nH]4)CC3)cc1)nc1ccccc12` to `CCOC(=O)c1cn2c(c(-c3ccc(CN4CCC(c5nnc(-c6ccccn6)[nH]5)CC4)cc3)nc3ccccc32)c1-c1ccccc1`, the IC50 falls from 19 µM to 5 µM (3.8-fold).

First: CCOC(=O)c1cc(-c2ccccc2)n2c1c(-c1ccc(CN3CCC(n4c(=O)[nH]c5ccccc54)CC3)cc1)nc1ccccc12
Second: O=c1cc(N2CCOCC2)oc2c(-c3ccccc3)cccc12 [LY-294002]
The IC50 of the first is 2.3-fold lower: 6 µM for the first, 14 µM for the second. The first is the more potent here.

Test system: Jurkat
Experiment: Antiproliferative activity against human Jurkat cells measured after 3 days by MTS assay
Type: functional, cell-based
Conditions: 72 h

Going from `CCOC(=O)c1c(-c2ccccc2)cn2c1c(-c1ccc(CN3CCC(n4c(=O)[nH]c5ccccc54)CC3)cc1)nc1ccccc12` to `CCOC(=O)c1cn2c(c(-c3ccc(CN4CCC(n5c(=O)[nH]c6ccccc65)CC4)cc3)nc3ccccc32)c1-c1ccccc1`, the IC50 falls from 41 µM to 4 µM (10-fold). The second is the more potent here.

First: CCOC(=O)c1c(-c2ccccc2)cn2c1c(-c1ccc(CN3CCC(c4nc5ccc(F)cc5[nH]4)CC3)cc1)nc1ccccc12
Second: CCOC(=O)c1cn2c(c(-c3ccc(CN4CCC(c5nnc(-c6ccccn6)[nH]5)CC4)cc3)nc3ccccc32)c1-c1ccccc1
The IC50 of the first is 2.5-fold higher: 5 µM for the first, 2 µM for the second.

`CCOC(=O)c1cc(-c2ccccc2)n2c1c(-c1ccc(CN3CCC(n4c(=O)[nH]c5ccccc54)CC3)cc1)nc1ccccc12` and `O=c1[nH]c2ccccc2n1C1CCN(Cc2ccc(-c3nc4ccccc4n4cc5ccccc5c34)cc2)CC1` are within 1.5-fold of each other in IC50: 4 µM for the first, 5 µM for the second.

Compound `O=c1cc(N2CCOCC2)oc2c(-c3ccccc3)cccc12` [LY-294002] has an IC50 of 22 µM.

Test system: not listed separately
Experiment: Antiproliferative activity against human U266 cells measured after 3 days by MTS assay
Type: functional, cell-based
Conditions: U-266, 72 h

First: CCOC(=O)c1c(-c2ccccc2)cn2c1c(-c1ccc(CN3CCC(n4c(=O)[nH]c5ccccc54)CC3)cc1)nc1ccccc12
Second: CCOC(=O)c1cn2c(c(-c3ccc(CN4CCC(n5c(=O)[nH]c6ccccc65)CC4)cc3)nc3ccccc32)c1-c1ccccc1
The IC50 of the first is higher: > 50 µM for the first, 10 µM for the second. The second is the more potent here.

`CCOC(=O)c1c(-c2ccccc2)cn2c1c(-c1ccc(CN3CCC(c4nc5ccc(F)cc5[nH]4)CC3)cc1)nc1ccccc12` and `CCOC(=O)c1cn2c(c(-c3ccc(CN4CCC(c5nnc(-c6ccccn6)[nH]5)CC4)cc3)nc3ccccc32)c1-c1ccccc1` are within 1.5-fold of each other in IC50: 3.5 µM for the first, 5 µM for the second.

Compared with `CCOC(=O)c1cc(-c2ccccc2)n2c1c(-c1ccc(CN3CCC(n4c(=O)[nH]c5ccccc54)CC3)cc1)nc1ccccc12`, `O=c1cc(N2CCOCC2)oc2c(-c3ccccc3)cccc12` [LY-294002] is 5.1-fold higher in IC50: 9 µM for the first, 46 µM for the second. The first is the more potent here.

Test system: PBMC
Experiment: Cytotoxicity against PHA induced human PBMC after 3 days by MTS assay
Type: cell-based
Conditions: 72 h

Going from `CCOC(=O)c1c(-c2ccccc2)cn2c1c(-c1ccc(CN3CCC(n4c(=O)[nH]c5ccccc54)CC3)cc1)nc1ccccc12` to `CCOC(=O)c1cn2c(c(-c3ccc(CN4CCC(n5c(=O)[nH]c6ccccc65)CC4)cc3)nc3ccccc32)c1-c1ccccc1`, the IC50 falls from > 50 µM to 41.3 µM.

Compared with `CCOC(=O)c1c(-c2ccccc2)cn2c1c(-c1ccc(CN3CCC(c4nc5ccc(F)cc5[nH]4)CC3)cc1)nc1ccccc12`, `CCOC(=O)c1cn2c(c(-c3ccc(CN4CCC(c5nnc(-c6ccccn6)[nH]5)CC4)cc3)nc3ccccc32)c1-c1ccccc1` is 1.8-fold lower in IC50: 14 µM for the first, 8 µM for the second.

`CCOC(=O)c1cc(-c2ccccc2)n2c1c(-c1ccc(CN3CCC(n4c(=O)[nH]c5ccccc54)CC3)cc1)nc1ccccc12` and `O=c1cc(N2CCOCC2)oc2c(-c3ccccc3)cccc12` [LY-294002] cannot be ordered by IC50: > 50 µM for the first, > 50 µM for the second.

Test system: not listed separately
Experiment: Selectivity index, ratio of IC50 for human PBMC to IC50 for human K562 cells
Conditions: not given

In the case of `CCOC(=O)c1c(-c2ccccc2)cn2c1c(-c1ccc(CN3CCC(n4c(=O)[nH]c5ccccc54)CC3)cc1)nc1ccccc12`, the “Ratio IC50” value is reported as >12.5.

Test system: not listed separately
Experiment: Selectivity index, ratio of IC50 for human PBMC to IC50 for human Jurkat cells
Conditions: not given

With `CCOC(=O)c1cc(-c2ccccc2)n2c1c(-c1ccc(CN3CCC(n4c(=O)[nH]c5ccccc54)CC3)cc1)nc1ccccc12` the “Ratio IC50” value was >12.5.
